# Tested on: Myo5 SH3 domain
# Assay: SPOT analysis of cellulose-bound peptides (WISE), Myo5 SH3 domain (Dataset S4)
# Format: binding, Saccharomyces cerevisiae
# Conditions: for The normalized value in BLU units: Myo5 SH3 domain
# [1] = SPOT analysis of membrane-synthesized peptides probed with Myo5 SH3 domain, normalized value
# [2] = SPOT analysis of membrane-bound peptides, normalized value (see methods)
# [3] = SPOT analysis of cellulose-bound peptides probed with Myo5 SH3 domain, normalized value
# [4] = SPOT analysis of cellulose-bound 14-mer yeast proteome peptides, normalized value, mean where the peptide was synthesized more than once
sequence,measurement,setting,value
LNQSKGQPFQPSPT,"The normalized value in BLU units (SPOT analysis, Myo5 SH3)",[1],254.7 BLU
LNRKKVTPQLPKVT,The normalized value in BLU units,[2],499.8 BLU
LNRQKNYPDAPAIF,"The normalized value in BLU units (SPOT analysis, Myo5 SH3)",[1],86.4 BLU
LNTMKKRPAPPSLP,"The normalized value in BLU units (SPOT analysis, Myo5 SH3)",[1],22346.5 BLU
LPAPPPPPRRGPA,"The normalized value in BLU units (SPOT analysis, Myo5 SH3)",[3],43350 BLU
LPAVFSAPIRPDIV,The normalized value in BLU units,[4],201.8 BLU
LPEELMRPKVPELL,"The normalized value in BLU units (SPOT analysis, Myo5 SH3)",[3],145.4 BLU
LPEKKNSPTTPSVF,The normalized value in BLU units,[2],102.5 BLU
LPEPRFYPLSPKNN,The normalized value in BLU units,[2],289.3 BLU
LPFMYLLPRFPSHI,"The normalized value in BLU units (SPOT analysis, Myo5 SH3)",[3],454.8 BLU
LPFPRKNPKLPENT,"The normalized value in BLU units (SPOT analysis, Myo5 SH3)",[1],147.2 BLU
LPKLKSNPSVPHLH,The normalized value in BLU units,[4],193.1 BLU
LPLPKLRPPRPTFA,"The normalized value in BLU units (SPOT analysis, Myo5 SH3)",[1],77883.2 BLU
LPLSRVQPVQPSQT,"The normalized value in BLU units (SPOT analysis, Myo5 SH3)",[1],122.5 BLU
LPQQHLSPLIPIAI,The normalized value in BLU units,[4],45.3 BLU
LPTALLSPLRPSLC,The normalized value in BLU units,[4],115.0 BLU
LPTGYYEPMKPSSL,"The normalized value in BLU units (SPOT analysis, Myo5 SH3)",[3],164.9 BLU
LQESKTVPQSPKKP,"The normalized value in BLU units (SPOT analysis, Myo5 SH3)",[1],159.2 BLU
LQNAKNDPLPPVIE,"The normalized value in BLU units (SPOT analysis, Myo5 SH3)",[1],58.8 BLU
LQQRRYYPIFPGSI,"The normalized value in BLU units (SPOT analysis, Myo5 SH3)",[1],278.7 BLU
LQYHKKNPYSPLFS,The normalized value in BLU units,[4],317.8 BLU
LRISKPDPECPSKL,"The normalized value in BLU units (SPOT analysis, Myo5 SH3)",[1],246.3 BLU
LSFDRPPPLTPEKN,"The normalized value in BLU units (SPOT analysis, Myo5 SH3)",[1],174.4 BLU
LSGTRLVPNCPLLW,The normalized value in BLU units,[4],431.8 BLU
LSKLRLSPENPSNT,"The normalized value in BLU units (SPOT analysis, Myo5 SH3)",[1],157.2 BLU
LSKVRGRPMYPRPA,The normalized value in BLU units,[2],752.4 BLU
LSPAKARPSFPHND,"The normalized value in BLU units (SPOT analysis, Myo5 SH3)",[1],212.8 BLU
LSRSKPLPLTPNSK,"The normalized value in BLU units (SPOT analysis, Myo5 SH3)",[1],323.9 BLU
LSYLKDLPFVPFLF,The normalized value in BLU units,[2],213.0 BLU
LTIFKRPPKQPGHQ,The normalized value in BLU units,[2],702.9 BLU
LTKIRRRPQQPLTD,"The normalized value in BLU units (SPOT analysis, Myo5 SH3)",[1],393.3 BLU
LTLTKWDPSKPISL,The normalized value in BLU units,[2],231.0 BLU
LTSFKGRPKPPKTL,The normalized value in BLU units,[2],327.7 BLU
LTSVKIVPQRPISD,The normalized value in BLU units,[4],89.0 BLU
LVGLKYEPLFPYFA,The normalized value in BLU units,[2],124.8 BLU
LVGMRSFPLYPSGL,The normalized value in BLU units,[2],385.7 BLU
LVPSKAIPPLPQLD,The normalized value in BLU units,[4],558.2 BLU
LWILYMSPDVPSAS,"The normalized value in BLU units (SPOT analysis, Myo5 SH3)",[3],252.6 BLU
LWKPLVYPTCPSEH,"The normalized value in BLU units (SPOT analysis, Myo5 SH3)",[3],185.3 BLU
LWRPRIVPILPYIT,The normalized value in BLU units,[4],1051.3 BLU
LYREREEPPLPKRI,The normalized value in BLU units,[4],112.3 BLU
MAEFRRVPLPPMAE,The normalized value in BLU units,[4],442.6 BLU
MAFIKILPNNPWPF,"The normalized value in BLU units (SPOT analysis, Myo5 SH3)",[1],59.9 BLU
MAKSFADPRVPQPM,"The normalized value in BLU units (SPOT analysis, Myo5 SH3)",[3],172.2 BLU
MANILYYPQKPLGT,"The normalized value in BLU units (SPOT analysis, Myo5 SH3)",[3],152.5 BLU
MASFLPVPEKPNLI,The normalized value in BLU units,[4],161.0 BLU
MASGLLPPIQPGFD,"The normalized value in BLU units (SPOT analysis, Myo5 SH3)",[3],223.0 BLU
MDGIKELPEFPIKK,The normalized value in BLU units,[2],138.4 BLU
MDKFRIPPKSPNIE,"The normalized value in BLU units (SPOT analysis, Myo5 SH3)",[1],222.0 BLU
MDMDRNVPLAPNLN,The normalized value in BLU units,[2],91.4 BLU
MEEPFIWPEEPRPD,The normalized value in BLU units,[4],79.7 BLU
MFELLCHPKVPVGM,"The normalized value in BLU units (SPOT analysis, Myo5 SH3)",[3],267.7 BLU
MFNLLQKPEQPHQN,The normalized value in BLU units,[4],204.0 BLU
MFTYFQEPPFPDLL,"The normalized value in BLU units (SPOT analysis, Myo5 SH3)",[3],239.3 BLU
MGLNKDVPHCPESL,"The normalized value in BLU units (SPOT analysis, Myo5 SH3)",[1],99.4 BLU
MKAYRANPPLPIDS,"The normalized value in BLU units (SPOT analysis, Myo5 SH3)",[1],123.1 BLU
MKPQKIAPKFPGTV,The normalized value in BLU units,[2],415.8 BLU
MLFMKGSPSEPKCG,"The normalized value in BLU units (SPOT analysis, Myo5 SH3)",[1],250.7 BLU
MLFSWPYPEAPIEG,"The normalized value in BLU units (SPOT analysis, Myo5 SH3)",[3],126.4 BLU
MLKALFTPLIPVSF,The normalized value in BLU units,[4],257.0 BLU
MLNEHGVPVVPSRE,The normalized value in BLU units,[4],199.3 BLU
MLNSKHYPYIPVAN,The normalized value in BLU units,[2],170.8 BLU
MPNLKRLPIPPLQD,The normalized value in BLU units,[4],306.9 BLU
MQSKKEDPNRPKNL,The normalized value in BLU units,[2],153.6 BLU
MRRCKDAPIEPPKY,The normalized value in BLU units,[2],155.1 BLU
MSWCKERPECPLCR,The normalized value in BLU units,[4],268.5 BLU
MTQPKKNPMEPKTD,The normalized value in BLU units,[4],147.2 BLU
MTVPRNRPMAPFGT,The normalized value in BLU units,[4],595.6 BLU
MYDRKVIPRMPWHD,"The normalized value in BLU units (SPOT analysis, Myo5 SH3)",[1],357.4 BLU
MYGSKFIPFGPKCQ,"The normalized value in BLU units (SPOT analysis, Myo5 SH3)",[1],289.9 BLU
NAIAMALPNEPYPA,"The normalized value in BLU units (SPOT analysis, Myo5 SH3)",[3],96.8 BLU

# From PMC314469, “Protein Interaction Networks by Proteome Peptide Scanning” (PLoS Biology, 2004)
